From ChEMBL document CHEMBL1130430, “Assessment of solvation effects on calculated binding affinity differences: trypsin inhibition by flavonoids as a model system for congeneric series” (J Med Chem, 1997)

Columns and labels:
[1] = Disassociation constant (KI) was obtained from Cheng and Prusoff equation for quercetin trypsin complex
Serine protease 1 = target: T1, Serine protease 1 (Bos taurus, UniProt P00760); test: Inhibitory concentration of the compounds against Bovine trypsin enzyme.
T1 sequence (P00760 whole entry): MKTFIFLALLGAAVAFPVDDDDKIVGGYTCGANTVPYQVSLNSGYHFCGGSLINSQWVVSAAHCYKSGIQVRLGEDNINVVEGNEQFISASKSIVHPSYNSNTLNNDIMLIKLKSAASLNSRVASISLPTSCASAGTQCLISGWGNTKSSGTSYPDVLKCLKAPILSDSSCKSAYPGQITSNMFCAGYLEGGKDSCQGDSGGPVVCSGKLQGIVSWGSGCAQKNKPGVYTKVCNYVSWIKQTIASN

Row | SMILES | Ki [1] [µM] | IC50 (Serine protease 1) [µM]
1 | O=c1cc(-c2ccc(O)cc2)oc2cc(O)cc(O)c12 [APIGENIN] | 39.5 | 142
2 | O=c1c(O)c(-c2ccc(O)cc2)oc2cc(O)cc(O)c12 [KAEMPFEROL] | 29.5 | 106
3 | O=c1cc(-c2ccc(O)c(O)c2)oc2cc(O)cc(O)c12 [LUTEOLIN] | 9.84 | 35.3
4 | O=c1c(O)c(-c2ccc(O)cc2O)oc2cc(O)cc(O)c12 [MORIN] | 30.9 | 111
5 | O=c1c(O)c(-c2cc(O)c(O)c(O)c2)oc2cc(O)cc(O)c12 [MYRICETIN] | 2.84 | 10.2
6 | O=c1c(O)c(-c2ccc(O)c(O)c2)oc2cc(O)cc(O)c12 [QUERCETIN] | 1.98 | 
7 | COc1cc([C@@H]2Oc3c(O)cc([C@H]4Oc5cc(O)cc(O)c5C(=O)[C@@H]4O)cc3[C@H]2CO)ccc1O [SILICRISTIN] | 40.3 | 144
